1 molecule from PMC8112869, “Therapeutic inhibition of keratinocyte TRPV3 sensory channel by local anesthetic dyclonine” (eLife, 2021) can be followed below.

The structures appear in SMILES notation.

In assay [1] the target is T1, TRPM8 (Rattus norvegicus, UniProt Q8R455).
T1 construct: expressed in transfected cells; host or cells: HEK 293T
The experiment in a line: Whole-cell recording of menthol-activated TRPM8 in HEK 293T cells. The class given is cell-based. From the text:
(§1) The WT mouse TRPV3 (mTRPV3), human TRPV3 (hTRPV3), rat TRPV1, rat TRPV2, rat TRPM8, and mouse TRPA1 cDNAs were generously provided by Dr. Feng Qin (State University of New York at Buffalo, Buffalo, USA). The GFP-mTRPV3 WT and the mutants (mTRPV3-G573S and mTRPV3-G573C) in pcDNA4/TO vector were gifts from Dr. Michael X Zhu (The University of Texas Health Science Center at Houston, Houston, USA). The WT fTRPV3 was kindly provided by Dr. Makoto Tominaga (Department of Physiological Sciences, SOKENDAI, Okazaki, Japan). All mutations were made using the overlap-extension polymerase chain reaction method as previously described ([Tian et al., 2019]). The resulting mutations were then verified by DNA sequencing. […]
(§2) Conventional whole-cell and excised patch-clamp recording methods were used. […] For a subset of recordings, currents were amplified using an Axopatch 200B amplifier (Molecular Devices, Sunnyvale, CA) and recorded through a BNC-2090/MIO acquisition system (National Instruments, Austin, TX) using QStudio developed by Dr. Feng Qin at State University of New York at Buffalo. […] As determined by the conductance tests, the solution around a patch under study was fully controlled by the application of a flow rate of 100 μl/min or greater. […]

In assay [2] the target is T2, TRPV3 L630W (Mus musculus, UniProt Q8K424, L630W).
T2 construct: expressed in transfected cells; host or cells: HEK 293T
T2 sequence (Q8K424 whole entry L630W): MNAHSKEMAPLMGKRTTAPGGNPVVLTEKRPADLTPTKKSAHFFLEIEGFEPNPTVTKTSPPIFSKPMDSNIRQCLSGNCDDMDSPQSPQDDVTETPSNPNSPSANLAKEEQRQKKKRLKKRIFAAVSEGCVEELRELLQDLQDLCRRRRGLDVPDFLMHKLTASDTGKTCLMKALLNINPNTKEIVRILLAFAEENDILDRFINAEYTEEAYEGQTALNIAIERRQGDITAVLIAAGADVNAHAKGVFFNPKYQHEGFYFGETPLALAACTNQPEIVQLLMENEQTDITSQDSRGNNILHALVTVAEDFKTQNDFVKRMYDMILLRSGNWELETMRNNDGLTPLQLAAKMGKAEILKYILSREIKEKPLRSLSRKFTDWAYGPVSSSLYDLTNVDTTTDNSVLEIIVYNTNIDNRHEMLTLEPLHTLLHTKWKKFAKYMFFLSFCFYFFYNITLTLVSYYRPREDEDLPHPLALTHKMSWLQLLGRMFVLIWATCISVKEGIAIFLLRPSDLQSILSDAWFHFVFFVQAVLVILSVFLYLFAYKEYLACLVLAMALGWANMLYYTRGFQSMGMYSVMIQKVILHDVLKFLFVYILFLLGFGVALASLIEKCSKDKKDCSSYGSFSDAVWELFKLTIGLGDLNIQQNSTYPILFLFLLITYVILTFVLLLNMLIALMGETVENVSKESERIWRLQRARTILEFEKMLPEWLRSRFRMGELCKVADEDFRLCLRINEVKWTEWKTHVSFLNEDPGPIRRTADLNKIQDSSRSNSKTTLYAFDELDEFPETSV
The experiment in a line: Whole-cell recording of TRPV3 mutant L630W in HEK 293T cells. In kind it is cell-based. The note with it: 2-APB (1 mM)-evoked, –60 mV, read-out: IC50 for inhibition of TRPV3 mutant.
Source text: as §1, §2

Assay [3] has as its target T3, human TRPV3 (hTRPV3) (Homo sapiens, UniProt Q8NET8).
T3 construct: expressed in transfected cells; host or cells: HEK 293T
As to the kind of experiment: Whole-cell recording of 2-APB-evoked currents in hTRPV3-expressing HEK 293T cells. The class given is cell-based.
Source text: as §1, §2

The test system of assay [4] is TRPV3+/+ and TRPV3-/- mice. As to the kind of experiment: Hot plate (55°C) paw withdrawal latency, Hargreaves test. In kind it is in vivo, mouse. As to the method: All tests were conducted during the light phase of the light/dark cycle by a trained observer blind to the genotype. Mice were habituated to the testing room for 60 min prior to the behavioral tests unless otherwise stated. Hargreaves test was performed as described previously ([Wang et al., 2018]). All behavioral experiments were conducted in a double-blind manner. For measurement of thermal hyperalgesia, animals were placed individually, 30 min after injection, on a hot plate (Bioseb, Chaville, France) with the temperature adjusted to 55°C. The withdrawal latency of each hind paw was determined until nocifensive reaction appeared (licking foot). Right hind paws of mice were injected intraplantarly with 10 μl normal saline (0.9% NaCl). Left hind paws of mice were injected intraplantarly with 10 μl normal saline (supplemented with 10 or 50 μM dyclonine).

T1 sequence (Q8R455 whole entry): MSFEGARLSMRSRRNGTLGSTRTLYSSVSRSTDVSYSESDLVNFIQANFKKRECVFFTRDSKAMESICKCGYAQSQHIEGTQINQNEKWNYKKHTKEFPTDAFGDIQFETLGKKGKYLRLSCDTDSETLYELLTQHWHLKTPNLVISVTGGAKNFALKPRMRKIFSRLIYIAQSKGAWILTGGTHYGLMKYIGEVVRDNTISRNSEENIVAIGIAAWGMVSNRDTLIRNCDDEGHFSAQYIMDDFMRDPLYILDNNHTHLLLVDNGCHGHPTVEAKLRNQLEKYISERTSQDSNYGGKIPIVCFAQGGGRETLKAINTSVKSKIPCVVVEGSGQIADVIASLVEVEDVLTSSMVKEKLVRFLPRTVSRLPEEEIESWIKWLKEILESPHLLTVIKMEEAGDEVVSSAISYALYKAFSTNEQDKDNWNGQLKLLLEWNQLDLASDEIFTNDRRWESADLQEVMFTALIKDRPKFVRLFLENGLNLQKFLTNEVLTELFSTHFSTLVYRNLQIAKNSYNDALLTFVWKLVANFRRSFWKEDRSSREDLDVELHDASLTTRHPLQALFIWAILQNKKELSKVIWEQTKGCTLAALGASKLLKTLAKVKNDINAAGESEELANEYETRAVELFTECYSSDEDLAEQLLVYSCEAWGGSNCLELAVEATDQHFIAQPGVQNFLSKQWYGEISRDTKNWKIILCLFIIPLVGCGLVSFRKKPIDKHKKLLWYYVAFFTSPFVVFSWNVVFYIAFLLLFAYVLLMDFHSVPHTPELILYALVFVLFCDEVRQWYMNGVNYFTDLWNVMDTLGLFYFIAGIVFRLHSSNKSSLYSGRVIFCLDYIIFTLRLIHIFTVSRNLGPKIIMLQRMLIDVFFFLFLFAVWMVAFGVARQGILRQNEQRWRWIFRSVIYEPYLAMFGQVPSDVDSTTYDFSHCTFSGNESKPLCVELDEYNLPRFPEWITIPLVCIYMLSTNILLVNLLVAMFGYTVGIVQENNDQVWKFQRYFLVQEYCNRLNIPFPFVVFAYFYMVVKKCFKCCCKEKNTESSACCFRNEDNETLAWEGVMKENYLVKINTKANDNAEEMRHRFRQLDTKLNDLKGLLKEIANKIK
T3 sequence (Q8NET8 whole entry): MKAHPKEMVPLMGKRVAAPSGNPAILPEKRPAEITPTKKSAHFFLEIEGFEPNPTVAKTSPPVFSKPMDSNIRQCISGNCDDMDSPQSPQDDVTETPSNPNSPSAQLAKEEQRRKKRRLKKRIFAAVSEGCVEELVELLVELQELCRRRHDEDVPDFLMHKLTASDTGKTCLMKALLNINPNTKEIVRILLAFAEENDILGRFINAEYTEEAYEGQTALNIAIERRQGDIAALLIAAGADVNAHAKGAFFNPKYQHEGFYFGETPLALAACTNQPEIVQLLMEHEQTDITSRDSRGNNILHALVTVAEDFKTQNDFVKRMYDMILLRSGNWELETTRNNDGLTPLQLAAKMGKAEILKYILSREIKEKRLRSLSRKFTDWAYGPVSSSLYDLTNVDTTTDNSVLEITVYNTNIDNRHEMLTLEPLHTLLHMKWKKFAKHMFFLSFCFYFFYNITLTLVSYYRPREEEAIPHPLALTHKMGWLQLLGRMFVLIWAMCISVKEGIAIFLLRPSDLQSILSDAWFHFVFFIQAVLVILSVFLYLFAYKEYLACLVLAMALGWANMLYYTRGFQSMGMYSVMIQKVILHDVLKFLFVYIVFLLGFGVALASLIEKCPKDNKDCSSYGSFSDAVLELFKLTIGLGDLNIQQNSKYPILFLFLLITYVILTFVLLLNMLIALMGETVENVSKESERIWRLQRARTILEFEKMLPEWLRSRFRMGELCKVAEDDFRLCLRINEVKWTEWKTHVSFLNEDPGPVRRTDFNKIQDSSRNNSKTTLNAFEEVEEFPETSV

As usually defined, the IC50 is the concentration at which inhibition is half-maximal. For `CCCCOc1ccc(C(=O)CCN2CCCCC2)cc1` [dyclonine], the entries for the “Hill coefficient nH” value in assay [1] and in assay [3] were 1.2 ± 0.20 and 1.91 ± 0.14, respectively. Moreover, in assay [1] (10 μM dyclonine, menthol-activated), the “reduction in current amplitude” value is recorded as 9% ± 2%. The IC50 in assay [2] is 30.8 ± 2.2 µM; in assay [3] (2-APB (100 μM)-evoked, –60 mV, read-out: IC50 on blocking of hTRPV3), 16.2 ± 0.72 µM. Further, the “paw withdrawal latencies (PWL)” value was 18.08 ± 0.03 s in assay [4] (TRPV3+/+ mice, intraplantar 10 μM dyclonine); 18.82 ± 0.42 s in assay [4] (TRPV3+/+ mice, intraplantar 50 μM dyclonine); 18.23 ± 0.52 s in assay [4] (TRPV3-/- mice, intraplantar 10 μM dyclonine); 18.61 ± 0.46 s in assay [4] (TRPV3-/- mice, intraplantar 50 μM dyclonine).
